Measurements reported in US20130115178A1, “TANNING ENHANCERS AND SELF-TANNING SUBSTANCES” (MERCK PATENT GESELLSCHAFT MIT BESCHRANKTER HAFTUNG, priority 2010, published 2013).
Where “and” joins values, the source holds several entries; their conditions need not be identical. Equal entries are not always repeated.

Legend:
[1] = tested on: B16V mouse melanoma cells; assay: B16 V mouse melanoma cell test (melanin concentration); assay type: cell-based; settings: for Melanin concentration %: relative to blank DMSO + α-MSH = 100%
Experimental: Description of the performance of the B16 V mouse melanoma cell test:
B16V mouse melanoma cells (manufacturer: DSMZ; Article No,: ACC370) in RPMI medium (Invitrogen, Article No.: 31870), to which 10% of FBS (foetal bovine serum, Invitrogen, Article No: 10499044), 2 mM L-glutamine (Invitrogen, Article No: 25030) and 1 mM sodium pyruvate (Invitrogen, Article No:11360) had additionally been added (modified RPMI medium), are transferred into a culture bottle and incubated at 37° C. and 5% CO2 for 72 h. The medium is separated off, and the cells are washed with 10 ml of D-PBS (Invitrogen, Article No. 14190) and subsequently filtered off with suction. 1 ml of HyQtase cell detachment solution (Hyclone, Article No. SV30030.01) is added to the cells. The bottle is swirled a number of times, and the HyQtase cell detachment solution is subsequently removed by suction. The cells are then incubated in the incubator at 37° C. and 5% CO2 for 5 min. The cells are taken up in the modified RPMI medium (Invitrogen, Article No.: 31870), and the cell count is determined. To this end, the cells are stained with Tryptan Blue and counted in a Neubauer chamber. The cells are subsequently sown out again in the modified RPMI medium in a defined cell count of 80,000 cells per well (6-well clear plate, TCT, PS (Nunc)).
The plate is subsequently incubated at 37° C. and 5% CO2 for 24 h, the medium is then removed. […]
After the final incubation period, the medium is removed by suction, and the cells are washed with 1000 μl of D-PBS (Invitrogen, Article No. 14190). […] The cell count is subsequently determined. To this end, the cells are stained with Tryptan Blue and counted in a Neubauer chamber. […] 200 μl are then pipetted as quadruple determination (per cup) into a 96-well plate (VWR, Article No. 4100636981), and the absorption at a wavelength of 405 nm is determined. […] The content of melanin can be determined in this way by means of a calibration line.
The other values were determined relative to the blank sample with dimethyl sulfoxide (DMSO) and a-MSH, whose measurement was set at 100%

[2] = tested on: explants from the stomach tissue of a pale-skinned person (type); assay: Ex-vivo study: chromametric colour measurement of skin explants; parameters: species or system human; key to b / a: CIE L*a*b* colour coordinates, Minolta CR-300 chromameter, D65
Experimental: 12 explants from the stomach tissue of a pale-skinned person (type) having an average diameter of 10 mm are prepared (reference: P831-AB49).
The explants are kept in a BEM medium (B10-EC's explants medium) at 37° C. in a moist atmosphere comprising 5% of CO2.
The following samples are tested: (in each case 3 explants), where the solutions of the corresponding substances used comprise 90% of water and 10% of ethanol.
Glucuronolactone is employed in the bicyclic form.
2 μl of the respective sample are added to the explants and distributed for the first time (D0), 1 day later (D1), 2 days later (D2), 3 days later (D3) and 4 days later (D4). The colour of the explants is determined chromametrically. The measurements are carried out on addition (D0), on day 1 (D1), on day 5 (D5) and on day 11 (D11).
The colour measurements are carried out using a Minolta CR-300 Chroma-meter, and the L, a and b values are read off correspondingly on the instrument.
The following parameters are set:
A colour area is present here which is viewed at a viewing angle of 2 degrees. This viewing angle is used as standard in the chromametric measurement. • Irradiation source D65, corresponding to daylight • Region of the measurement: 3 mm • Parameters used: L*a*b*
The sample is placed on the bearing rail with the epidermis facing downwards. The irradiation is carried out from the underside through the area indicated (3 mm).
In the colorimetric determinations <<L a b>>, the L value determines the contrast of the skin. If the L value drops, the skin appears darker.
Δa after one day is calculated as follows: […]

[3] = tested on: explants from the stomach tissue of a pale-skinned person (type); assay: as above; parameters: species or system human; key: change in the L*a*b* a value from D0; settings: D5 vs D0; single explants; listed as P2
[4] = In-vitro investigation of DHA and DHA/glucuronolactone (Liquidskin model, L-a-b values); settings: 37° C., pH 7
[5] = D0 (on addition), single explants, n=3, listed as P2
[6] = D1, single explants, n=3, listed as P2
[7] = D5, single explants, n=3, listed as P2
[8] = D11, single explants, n=3, listed as P2

O=C[C@H](O)[C@H]1OC(=O)[C@@H](O)[C@H]1O [Glucuronolactone]
Melanin concentration % ([1]; 10 mM + α-MSH (10^−8 M)): 46.9% | Melanin concentration % ([1]; 10 mM, without α-MSH): 56.7% | melanin production ([1]; cell culture tests with B16V mouse melanoma cells): reduce melanin production | L [2, 5]: 64.07 and 62.49 and 62.34 | b [2, 5]: 17.1 and 17.34 and 16.15 | L [2, 6]: 65.12 and 64.59 and 62.71 | b [2, 6]: 17.81 and 17.14 and 16.29 | L [2, 7]: 62.73 and 63.62 and 63.56 | b [2, 7]: 16.51 and 16.88 and 15.95 | L [2, 8]: 64.22 and 65.7 and 62.69 | a [2, 8]: 1.87 and 2.44 and 2.65 | b [2, 8]: 14.34 and 15.04 and 15.57 | skin colour in comparison with the untreated sample ([2]; explants, glucuronolactone 1%): darkening of the skin | Δa [3]: 0.25 and 0.22 and 0.26

O=C(CO)CO [DHA, 1,3-dihydroxyacetone]
L ([4]; after 6 hours): 86.1 | a ([4]; after 6 hours): 13.4 | b ([4]; after 6 hours): 39.9 | L ([4]; after 24 hours): 61.3 | a ([4]; after 24 hours): 31.7 | b ([4]; after 24 hours): 75.0 | L ([4]; after one hour): 99.4 | a ([4]; after one hour): 0.4 | b ([4]; after one hour): 1.3
